Assay results: patent publication US20140087362A1 (priority 2012, published 2014)
“Also recorded” adds a separate entry of the source.

Legend:
[1] = system: A549 lung cancer cell line; test: Side population by Hoechst 33342 staining and flow cytometry; format: cell-based, human
HMLE cells = test: EMT induction in human mammary epithelial cells; format: cell-based
Procedure: Human mammary epithelial cells (HMLE; Dr. Robert A. Weinberg) were plated at a density of about 50% in DMEM/F-12 medium and incubated overnight at 37° C. in a CO2 incubator. The cells were then cultured in inducing medium (DMEM/F-12 (1:1) medium supplemented with insulin, hydrocortisone, 5% FBS, and 2.5 ng/mL TGF-β1) to induce EMT or non-inducing medium (i.e. without TGF-β1). The inducing medium or non-inducing medium was refreshed every 3 days for 12 days. Following EMT treatment, one set of cells were immunostained for E-cadherin, vimentin and fibronectin expression, three widely used EMT markers. Another set of cells was harvested, stained for CD44 and CD24 expression and analyzed by flow cytometry as described in Example 27.
For immunostaining of E-cadherin, vimentin and fibronectin, cells were fixed and permeabilized on the culture plates and incubated with FITC-conjugated antibodies against E-cadherin, vimentin and fibronectin using a standard cell staining protocol. Following removal of unbound antibody, the cells were counterstained with the nuclear dye 4′,6-diamidino-2-phenylindole (DAPI). After staining, phase contrast and fluorescent images of the cells were taken using a fluorescence microscope, equipped with the appropriate filters and a digital camera, using a 100× objective.

mouse bone marrow cells = test: Side population by Hoechst 33342 staining and flow cytometry
ALDH1 = test: ALDEFLUOR assay with or without DEAB; format: cell-based, human
Procedure: Aldehyde dehydrogenase (ALDH1) is a useful marker for isolating primitive stem cell populations including normal human mammary stem and progenitor cells as well as transformed tumor-initiating stem cells. In this example, GI-101A, MCF7, MDA-MB-231, Hs 578T, and SUM139PT breast cancer cell lines were tested for activity of the ALDH1 marker using a commercial assay to detect ALDH1 expression and thereby identify tumor stem cells (the ALDEFLUOR® assay (available from Stemcell™ Technologies, Vancouver BC, CA; see Ginestier et al. (2007) Cell Stem Cell 1(5):555-567)). […] The ALDH substrate fluoresces upon cleavage by ALDH.
ALDEFLUOR® assay fluorescence was excited at 488 nm and fluorescence emission was detected using a standard FITC 530/30 band pass filter. The sorting gates were established using propidium iodide stained cells for viability and the ALDEFLUOR® assay-stained cells treated with DEAB as negative controls.
To supplement the flow cytometric analysis, the presence of ALDH in GI-101A was assessed visually by fluorescence microscopy. ALDEFLUOR® assay-labeled cells, with or without DEAB, were counterstained with the nuclear dye 4′,6-diamidino-2-phenylindole (DAPI). Phase contrast and fluorescent images of the cells were taken using a fluorescence microscope, equipped with the appropriate filters and a digital camera, using a 100× objective.
First an ALDEFLUOR assay was performed on GI-101 cells in the presence or absence of DEAB inhibitor as described in Example 21. The ALDEFLUOR stained cells were then subjected to staining with CD44, CD24 and CD49f antibodies. The ALDEFLUOR stained cells were centrifuged for 10 minutes at 300×g at 4° C. and resuspended to a concentration of 2×10^7 cells per mL in cold staining buffer. 50 μL it of cells were added to 12×75 round bottoms tubes on ice for each stain. 10 μL diluted antibody mixture was added and incubated for 30-45 minutes in an ice bath to minimize release of the Hoechst dye. […] The cells were washed twice with 2 mL staining buffer at 4° C. The cells were resuspended in 400 μL it staining buffer and kept on ice until analyzed by flow cytometry.

## COC(=O)[C@H]1[C@H]2C[C@@H]3c4[nH]c5cc(OC)ccc5c4CCN3C[C@H]2C[C@@H](OC(=O)c2cc(OC)c(OC)c(OC)c2)[C@@H]1OC [reserpine]
[1]; 12.5 μM
  side population cells: 1.51±0.1%
[1]; 25 μM
  side population cells: 0.56±0.08%
[1]; 50 μM
  side population cells: 0.51±0.01%
[1]; 200 μM
  side population cells: 0.48±0.06%

## TGF-β1: transforming growth factor β used to induce EMT
HMLE cells; 2.5 ng/mL, 12 days EMT induction
  CD44^+/CD24^−/low cells: 51.9%±3
HMLE cells; 12 days post-EMT induction, versus non-induced
  EMT marker expression (E-cadherin, vimentin, fibronectin): E-cadherin expression was down-regulated; also recorded: vimentin expression was up-regulated; also recorded: fibronectin expression was up-regulated

## COc1ccc(CCN(C)CCCC(C#N)(c2ccc(OC)c(OC)c2)C(C)C)cc1OC (stereo not shown) [Verapamil]
Mouse bone marrow cells; 50 μM
  side population, percent of registered events: 3.74±0.3%
Mouse bone marrow cells; 100 μM
  side population, percent of registered events: 1.76±0.1%

## COc1ccc2c3c([nH]c2c1)[C@H](C=C(C)C)N1C(=O)[C@@H]2CCCN2C(=O)[C@@H]1C3 [FTC, Fumitremorgin C]
[1]; 25 μM
  side population cells: 1.31±0.2%
[1]; 50 μM
  side population cells: 0.92±0.2%
[1]; 100 μM
  side population cells: 0.62±0.1%
[1]; 200 μM
  side population cells: 0.46±0.08%

## CCN(CC)c1ccc(C=O)cc1 [DEAB]
ALDH1; CD44/CD24 staining set
  ALDH− cells: 99.9%
ALDH1; CD44/CD49f staining set
  ALDH+ cells: 0.09%
  ALDH− cells: 99.9%
ALDH1; GI-101 cells, CD44/CD24 staining set
  ALDH+ cells: 0.09%
